Assays:
Assay in all cases: relative viability (nuclei count vs DMSO), 5 days (fraction); higher = more cells survive
Sunitinib + Pictilisib = compound: CCN(CC)CCNC(=O)c1c(C)[nH]c(/C=C2\C(=O)Nc3ccc(F)cc32)c1C [Sunitinib] + CS(=O)(=O)N1CCN(Cc2cc3nc(-c4cccc5[nH]ncc45)nc(N4CCOCC4)c3s2)CC1 [Pictilisib] (partner 1 µM)
How it was run: (§1)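 Lung cancer cell lines were seeded in 1536-well plates and dosed by pin tool the next day, with either a single drug or a fixed anchor-drug dose combined with five library-drug doses (not always all listed) spaced in √10 steps. Five days later, one step fixed the cells and stained their nuclei (final 0.05% Triton X-100, 1% formaldehyde, 1 ug/ml Hoechst), and nuclei were counted on 4× images. Relative viability is the nuclei count in treated wells divided by the count in vehicle wells, and each value is the median of duplicate plates.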

Sunitinib + Crizotinib = compound: CCN(CC)CCNC(=O)c1c(C)[nH]c(/C=C2\C(=O)Nc3ccc(F)cc32)c1C [Sunitinib] + C[C@@H](Oc1cc(-c2cnn(C3CCNCC3)c2)cnc1N)c1c(Cl)ccc(F)c1Cl [Crizotinib] (partner 1 µM)
How it was run: as §1

Sunitinib + Dasatinib = compound: CCN(CC)CCNC(=O)c1c(C)[nH]c(/C=C2\C(=O)Nc3ccc(F)cc32)c1C [Sunitinib] + Cc1nc(Nc2ncc(C(=O)Nc3c(C)cccc3Cl)s2)cc(N2CCN(CCO)CC2)n1 [Dasatinib] (partner 0.075 µM)
How it was run: as §1

Sunitinib + Vorinostat = compound: CCN(CC)CCNC(=O)c1c(C)[nH]c(/C=C2\C(=O)Nc3ccc(F)cc32)c1C [Sunitinib] + O=C(CCCCCCC(=O)Nc1ccccc1)NO [Vorinostat] (partner 1 µM)
How it was run: as §1

Cell Line	relative viability (Sunitinib + Pictilisib; first compound 0.02 µM)	relative viability (Sunitinib + Pictilisib; first compound 0.06325 µM)	relative viability (Sunitinib + Pictilisib; first compound 0.2 µM)	relative viability (Sunitinib + Pictilisib; first compound 0.6325 µM)	relative viability (Sunitinib + Pictilisib; first compound 2 µM)	relative viability (Sunitinib + Crizotinib; first compound 0.02 µM)	relative viability (Sunitinib + Crizotinib; first compound 0.06325 µM)	relative viability (Sunitinib + Crizotinib; first compound 0.2 µM)	relative viability (Sunitinib + Crizotinib; first compound 0.6325 µM)	relative viability (Sunitinib + Crizotinib; first compound 2 µM)	relative viability (Sunitinib + Dasatinib; first compound 0.02 µM)	relative viability (Sunitinib + Dasatinib; first compound 0.06325 µM)	relative viability (Sunitinib + Dasatinib; first compound 0.2 µM)	relative viability (Sunitinib + Dasatinib; first compound 0.6325 µM)	relative viability (Sunitinib + Dasatinib; first compound 2 µM)	relative viability (Sunitinib + Vorinostat; first compound 0.02 µM)	relative viability (Sunitinib + Vorinostat; first compound 0.06325 µM)	relative viability (Sunitinib + Vorinostat; first compound 0.2 µM)	relative viability (Sunitinib + Vorinostat; first compound 0.6325 µM)	relative viability (Sunitinib + Vorinostat; first compound 2 µM)
201T	0.697	0.708	0.738	0.675	0.738	0.981	0.978	1.03	1.02	1.06	0.542	0.56	0.57	0.571	0.528	0.932	1.05	1.02	0.954	0.965
A549	0.457	0.546	0.589	0.631	0.412	0.722	0.816		0.906	0.711										
A-427	0.702	0.8	0.926	0.748	0.73	0.865	0.885	1.09	0.847	0.787	0.66	0.641	0.787	0.723	0.692	0.871	0.915	0.912	0.887	0.898
ABC-1	0.818		0.668	0.991	0.802	1.08	1.12	1.03	1.03	0.739	0.561	0.609	0.495	0.513	0.49	1.22	1.38	1.05	1.09	
BEN	0.494	0.552	0.615	0.566	0.52	0.835	0.956	1.18	0.93	0.955	0.31	0.301	0.277	0.38	0.309	0.535	0.637	0.571	0.574	0.533
CAL-12T	0.47	0.58	0.431	0.628	0.414	0.564	0.735	0.623	0.791	0.582	0.36	0.446	0.442	0.468	0.332	0.541	0.864	1.04	0.902	0.682
COR-L23	0.788	1.04	0.97	0.881	0.812	0.663	0.748	0.799	0.761	0.727	0.489	0.522	0.622	0.533	0.542	0.457	0.515	0.484	0.464	0.503
COR-L 105	0.371	0.415	0.569	0.364	0.409	0.513	0.811	0.995	0.894	0.695	0.316	0.361	0.286	0.379	0.543	0.856	0.646	0.817	0.797	0.744
ChaGo-K-1	0.766	0.786	0.774	0.624	0.756	1.06	1.14	1.34	1.22	1.12	0.529	0.753	0.575	0.571	0.598	0.736	0.831	0.887	0.773	0.746
EKVX	0.456	0.437	0.578	0.495	0.577	0.966	1.14	1.22		0.958	0.524	0.638	0.605	0.669	0.654	0.802		0.882	0.806	0.728
EMC-BAC-2	0.501	0.601	0.589	0.548	0.565	0.743	0.848	0.821	0.88	0.797	0.318	0.336	0.383	0.344	0.36	0.458	0.464	0.506	0.506	0.505
EPLC-272H	0.313	0.336	0.297	0.338	0.334	0.906	0.736	0.959		0.706	0.385	0.418	0.374	0.409	0.333	0.512	0.479	0.424	0.397	0.555
H3255	0.465	0.495	0.519	0.514	0.495	0.836	0.831	0.876	1.05	0.917	0.455	0.379	0.418	0.336	0.381	0.672	0.573	0.835	0.827	0.822
HARA	0.397	0.374	0.606	0.31	0.323	1.02	1.11	1.41	1.19		0.2	0.254	0.278	0.286	0.302	0.525	0.518	0.687	0.441	0.553
HCC-15	0.68	0.791	0.888	0.749	0.774	0.761	0.84	0.958	0.86	0.859	0.549	0.709	0.726	0.66	0.598	0.905	0.93	0.984	0.789	0.85
HCC-44	0.524	0.653	0.968	0.786	0.598	0.874	0.784	0.937	0.859	0.774						1.15	1.09	1.15	1.09	1.14

Cell Line	relative viability (Sunitinib + Pictilisib; first compound 0.02 µM)	relative viability (Sunitinib + Pictilisib; first compound 0.06325 µM)	relative viability (Sunitinib + Pictilisib; first compound 0.2 µM)	relative viability (Sunitinib + Pictilisib; first compound 0.6325 µM)	relative viability (Sunitinib + Pictilisib; first compound 2 µM)	relative viability (Sunitinib + Crizotinib; first compound 0.02 µM)	relative viability (Sunitinib + Crizotinib; first compound 0.06325 µM)	relative viability (Sunitinib + Crizotinib; first compound 0.2 µM)	relative viability (Sunitinib + Crizotinib; first compound 0.6325 µM)	relative viability (Sunitinib + Crizotinib; first compound 2 µM)	relative viability (Sunitinib + Dasatinib; first compound 0.02 µM)	relative viability (Sunitinib + Dasatinib; first compound 0.06325 µM)	relative viability (Sunitinib + Dasatinib; first compound 0.2 µM)	relative viability (Sunitinib + Dasatinib; first compound 0.6325 µM)	relative viability (Sunitinib + Dasatinib; first compound 2 µM)	relative viability (Sunitinib + Vorinostat; first compound 0.02 µM)	relative viability (Sunitinib + Vorinostat; first compound 0.06325 µM)	relative viability (Sunitinib + Vorinostat; first compound 0.2 µM)	relative viability (Sunitinib + Vorinostat; first compound 0.6325 µM)	relative viability (Sunitinib + Vorinostat; first compound 2 µM)
HCC-78	0.206		0.227		0.246	0.299		0.348		0.365	0.39	0.313	0.329	0.315	0.358	0.427	0.418	0.531	0.481	0.465
HCC-366	0.0687	0.181	0.128	0.175	0.137	0.559	0.519	1.02	0.593	0.551	0.526	0.645	0.622	0.668	0.574	0.326	0.388	0.487	0.442	0.468
HCC-827	1.01	1.09	1.11	1.11	1.13	0.911	0.964	0.965	0.939	0.947	0.259	0.284	0.336	0.279	0.342	0.843	0.861	0.668	0.875	0.714
HOP-62	0.66	1.08	0.745	0.696	0.724	0.862	1.23	0.971		1.03	0.616	0.744	0.826	0.777	0.682	0.675	0.876	0.744	0.761	0.838
IA-LM	0.419	0.395	0.358	0.331	0.402	0.779	0.774	0.982	0.926	1.04						0.975	0.864	0.987	0.952	1.03
LC-2-ad	0.51	0.461	0.444	0.285	0.28	0.446	0.554	0.452	0.521	0.534	0.621	0.599	0.872	0.558	0.403	0.673	0.767	0.774	0.799	0.698
LCLC-97TM1	0.199	0.261		0.213	0.233	0.347	0.384		0.319	0.362	0.918	0.904	0.914	0.911	0.793	0.638	0.943	0.713	0.887	0.768
NCI-H522											0.731	1.05	0.899	1.04	0.923	0.831	1.04	0.927	0.922	1.05
NCI-H1299	0.748	0.654	0.862		0.558	0.923	0.965	0.991												
NCI-H1395	0.609	0.646	0.662	0.614	0.594						0.394	0.463	0.453	0.406	0.266	0.715	0.715	0.757	0.897	0.983
NCI-H1563	0.637	0.641	0.695	0.653	0.643	0.833	0.878	0.805	0.946	0.906	0.487	0.505	0.441	0.422	0.489					
NCI-H1648																0.58	0.465	0.356	0.338	0.442
NCI-H1703	0.215	0.208	0.245	0.224	0.204	0.39	0.206	0.238	0.17	0.225										
NCI-H1792	0.242	0.291	0.243	0.242	0.265	0.821	1.03	1.22	0.979	1.01	0.678	0.799	1.02	0.754	0.74					
NCI-H1793		0.296	0.361	0.241	0.297						0.397	0.366	0.429	0.444	0.346		0.867	0.989	0.91	0.825
NCI-H2342											0.327	0.288	0.301	0.338	0.336	0.622	0.918	0.794	0.724	0.889

Reference: the supplement of paper PMC10307832
